The NIST ThermoML archive (doi:10.1021/acs.jced.5b00367)
Numbers after ± are expanded uncertainties.

Experiment: wn = mass fraction of the nth substance listed
Settings: 101 kPa, Liquid, Alternating current cell with electrodes, w1 = 0.01

CCCCCCCCCC[N+](CC)(CC)CCCCCCCCCC.[Br-] [didecyldiethylammonium bromide] + O
Settings | electrical conductivity [S/m]
292.15 K | 0.0559 ± 0.023
292.25 K | 0.0648 ± 0.027
292.35 K | 0.0649 ± 0.026
292.45 K | 0.0649 ± 0.026
292.55 K | 0.0676 ± 0.027
292.65 K | 0.0687 ± 0.028
292.75 K | 0.0704 ± 0.028
292.85 K | 0.0711 ± 0.029
292.95 K | 0.0714 ± 0.029
293.05 K | 0.0718 ± 0.029
293.15 K | 0.0718 ± 0.029
293.35 K | 0.0721 ± 0.029
293.45 K | 0.0722 ± 0.029
293.55 K | 0.0723 ± 0.029
293.65 K | 0.0724 ± 0.029
293.75 K | 0.0725 ± 0.029
293.85 K | 0.0726 ± 0.029
293.95 K | 0.0726 ± 0.029
294.05 K | 0.0727 ± 0.029
294.15 K | 0.0728 ± 0.029
294.35 K | 0.0729 ± 0.029
294.45 K | 0.073 ± 0.029
294.55 K | 0.0731 ± 0.029
294.65 K | 0.0732 ± 0.029
294.75 K | 0.0732 ± 0.029
294.85 K | 0.0733 ± 0.029
294.95 K | 0.0734 ± 0.029
295.05 K | 0.0735 ± 0.029
295.15 K | 0.0737 ± 0.029
295.25 K | 0.0736 ± 0.029
295.35 K | 0.0738 ± 0.029
295.45 K | 0.0739 ± 0.03
295.55 K | 0.074 ± 0.03
295.65 K | 0.074 ± 0.03
295.75 K | 0.0741 ± 0.03
295.85 K | 0.0741 ± 0.03
295.95 K | 0.0742 ± 0.03
296.05 K | 0.0743 ± 0.03
296.15 K | 0.0744 ± 0.03
296.25 K | 0.0746 ± 0.03
296.35 K | 0.0745 ± 0.03
296.45 K | 0.0746 ± 0.03
296.55 K | 0.0748 ± 0.03
296.65 K | 0.0748 ± 0.03
296.75 K | 0.0749 ± 0.03
296.85 K | 0.075 ± 0.03
296.95 K | 0.075 ± 0.03
297.05 K | 0.0752 ± 0.03
297.15 K | 0.0752 ± 0.03
297.25 K | 0.0752 ± 0.03
297.35 K | 0.0754 ± 0.03
297.45 K | 0.0755 ± 0.03
297.55 K | 0.0755 ± 0.03
297.65 K | 0.0757 ± 0.03
297.75 K | 0.0757 ± 0.03
297.85 K | 0.0758 ± 0.03
297.95 K | 0.0759 ± 0.03
298.05 K | 0.076 ± 0.03
301.15 K | 0.0789 ± 0.032
301.25 K | 0.079 ± 0.032
301.35 K | 0.0792 ± 0.032
301.55 K | 0.0794 ± 0.032
301.65 K | 0.0795 ± 0.032
301.75 K | 0.0795 ± 0.032
301.95 K | 0.0797 ± 0.032
302.05 K | 0.0799 ± 0.032
302.15 K | 0.08 ± 0.032
302.25 K | 0.0801 ± 0.032
302.35 K | 0.0802 ± 0.032
302.45 K | 0.0802 ± 0.032
302.55 K | 0.0803 ± 0.032
302.65 K | 0.0803 ± 0.032
302.85 K | 0.0806 ± 0.032
302.95 K | 0.0807 ± 0.032
303.15 K | 0.0809 ± 0.032
303.25 K | 0.0811 ± 0.032
303.35 K | 0.0811 ± 0.032
303.45 K | 0.0812 ± 0.033
303.55 K | 0.0814 ± 0.033
303.75 K | 0.0816 ± 0.033
303.85 K | 0.0817 ± 0.033
304.05 K | 0.0818 ± 0.033
304.15 K | 0.0819 ± 0.033
304.35 K | 0.0821 ± 0.033
304.55 K | 0.0823 ± 0.033
304.75 K | 0.0825 ± 0.033
304.85 K | 0.0826 ± 0.033
304.95 K | 0.0827 ± 0.033
305.05 K | 0.0829 ± 0.033
305.35 K | 0.0831 ± 0.033
305.55 K | 0.0831 ± 0.033
305.75 K | 0.0836 ± 0.033
305.85 K | 0.0838 ± 0.034
306.05 K | 0.0839 ± 0.034
306.25 K | 0.084 ± 0.034
306.35 K | 0.0841 ± 0.034
306.45 K | 0.0842 ± 0.034
306.65 K | 0.0843 ± 0.034
306.75 K | 0.0845 ± 0.034
306.95 K | 0.0848 ± 0.034
307.05 K | 0.0849 ± 0.034
307.25 K | 0.0851 ± 0.034
307.55 K | 0.0854 ± 0.034
307.65 K | 0.0855 ± 0.034
307.85 K | 0.0857 ± 0.034
308.15 K | 0.086 ± 0.034
308.25 K | 0.0861 ± 0.034
308.35 K | 0.0862 ± 0.035
308.55 K | 0.0862 ± 0.035
308.75 K | 0.0864 ± 0.035
308.85 K | 0.0866 ± 0.035
309.15 K | 0.0871 ± 0.035
309.35 K | 0.0872 ± 0.035
309.55 K | 0.0874 ± 0.035
309.75 K | 0.0876 ± 0.035
309.85 K | 0.0877 ± 0.035
309.95 K | 0.0878 ± 0.035
310.25 K | 0.088 ± 0.035
310.45 K | 0.0882 ± 0.035
310.55 K | 0.0883 ± 0.035
310.65 K | 0.0884 ± 0.035
310.95 K | 0.0888 ± 0.035
311.05 K | 0.089 ± 0.036
311.25 K | 0.0893 ± 0.036
311.45 K | 0.0894 ± 0.036
311.65 K | 0.0894 ± 0.036
311.75 K | 0.0896 ± 0.036
311.85 K | 0.0897 ± 0.036
312.15 K | 0.09 ± 0.036
312.35 K | 0.0901 ± 0.036
312.45 K | 0.0902 ± 0.036
312.55 K | 0.0904 ± 0.036
312.75 K | 0.0906 ± 0.036
312.95 K | 0.0908 ± 0.036
313.15 K | 0.091 ± 0.036
